{
  "source": "patent US4933456A",
  "about": "“Dipyridoxyl phosphate NMRI contrast agents” (Salutar, Inc., priority 1987, dated 1990)",
  "key": {"selected body organs [1]": {"tested_on": "selected body organs", "details": "30 min", "description": "Each of four rabbits was injected intravenously with one of the following amounts of the solution obtained in Example 7: 0.01 mmoles/kg, 0.05 mmoles/kg, 0.10 mmoles/kg and 0.20 mmoles/kg. The rabbits were sacrificed 30 min post injection, and the proton relaxation values of selected body organs were measured with NMR, in vitro at 10 MHz."}, "[2]": {"details": "10 MHz, 37° C", "description": "The relations of protons present in water and plasma exposed to the chelate product of Example 7 was tested by NMR for relaxities, in msec, at 10 MHz, 37° C."}, "selected body organs [3]": {"tested_on": "selected body organs", "details": "for T1: 0.01 mmol/kg i.v.", "description": "Each of seven rabbits was injected intravenously with 0.01 mmol/kg of the solution obtained in Example 7. The rabbits were sacrificed at 0.25, 0.50, 1.0, 2.0, 4, 6 and 24 hours post-injection, and the proton relation values of selected body organs were measured with NMR, in vitro, at 10 MHz."}},
  "note": "Where two headings read alike, the source gives them in different places.",
  "data": [
    {"smiles": "Cc1ncc(COP(=O)(O)O)c(CN(CCN(CC(=O)[O-])Cc2c(COP(=O)(O)O)cnc(C)c2O)CC(=O)[O-])c1O.[Mn+2]", "note": "[Mn(DPDP), sodium-calcium salt of a manganese chelate complex of N,N,-bis-(pyridoxal-5-phosphate)ethylenediamine-N,N'-diacetic acid or N,N'-bis(3-hydroxy-2-methyl-5-phosphonomethyl-4-pyridylmethyl)ethylenediamine-N,N'-diacetic acid]", "values": [
      {"measurement": "T1", "setting": "selected body organs [1]; Small Int., 0.20 mmol/kg i.v.", "value": 131, "unit": "ms"},
      {"measurement": "T2", "setting": "selected body organs [1]; Small Int., 0.20 mmol/kg i.v.", "value": 46, "unit": "ms"},
      {"measurement": "T1", "setting": "selected body organs [1]; Stom., 0.05 mmol/kg i.v.", "value": 245, "unit": "ms"},
      {"measurement": "T2", "setting": "selected body organs [1]; Stom., 0.05 mmol/kg i.v.", "value": 41, "unit": "ms"},
      {"measurement": "T1", "setting": "selected body organs [1]; Stom., 0.10 mmol/kg i.v.", "value": 242, "unit": "ms"},
      {"measurement": "T2", "setting": "selected body organs [1]; Stom., 0.10 mmol/kg i.v.", "value": 52, "unit": "ms"},
      {"measurement": "T1", "setting": "selected body organs [1]; Stom., 0.20 mmol/kg i.v.", "value": 271, "unit": "ms"},
      {"measurement": "T2", "setting": "selected body organs [1]; Stom., 0.20 mmol/kg i.v.", "value": 53, "unit": "ms"},
      {"measurement": "T1", "setting": "selected body organs [1]; Urine, 0.01 mmol/kg i.v.", "value": 821, "unit": "ms"},
      {"measurement": "T1", "setting": "selected body organs [1]; Urine, 0.05 mmol/kg i.v.", "value": 150, "unit": "ms"},
      {"measurement": "T2", "setting": "selected body organs [1]; Urine, 0.05 mmol/kg i.v.", "value": 136, "unit": "ms"},
      {"measurement": "T1", "setting": "selected body organs [1]; Urine, 0.10 mmol/kg i.v.", "value": 90, "unit": "ms"},
      {"measurement": "T2", "setting": "selected body organs [1]; Urine, 0.10 mmol/kg i.v.", "value": 75, "unit": "ms"},
      {"measurement": "dose saturating the liver and kidneys", "setting": "selected body organs [1]; rabbit, i.v.", "value": 0.10, "unit": "mmol/kg"},
      {"measurement": "uptake by the brain", "setting": "selected body organs [1]; rabbit, i.v.", "value": "observed at higher doses"},
      {"measurement": "uptake in the heart, liver and kidneys", "setting": "selected body organs [1]; rabbit, i.v.", "value": "rapid uptake"},
      {"measurement": "T1 (Plasma)", "setting": "[2]; 0.000039 molar", "value": 1103, "unit": "ms"},
      {"measurement": "T1 (Plasma)", "setting": "[2]; 0.000078 molar", "value": 995, "unit": "ms"},
      {"measurement": "T1 (Plasma)", "setting": "[2]; 0.000156 molar", "value": 856, "unit": "ms"},
      {"measurement": "T1 (Water)", "setting": "[2]; 0.000156 molar", "value": 1470, "unit": "ms"},
      {"measurement": "T1 (Plasma)", "setting": "[2]; 0.000312 molar", "value": 624, "unit": "ms"},
      {"measurement": "T1 (Water)", "setting": "[2]; 0.000312 molar", "value": 1083, "unit": "ms"},
      {"measurement": "T1 (Plasma)", "setting": "[2]; 0.000625 molar", "value": 398, "unit": "ms"},
      {"measurement": "T1 (Water)", "setting": "[2]; 0.000625 molar", "value": 639, "unit": "ms"},
      {"measurement": "T1 (Plasma)", "setting": "[2]; 0.00125 molar", "value": 240, "unit": "ms"},
      {"measurement": "T1 (Water)", "setting": "[2]; 0.00125 molar", "value": 332, "unit": "ms"},
      {"measurement": "T1 (Plasma)", "setting": "[2]; 0.0025 molar", "value": 139, "unit": "ms"},
      {"measurement": "T1 (Water)", "setting": "[2]; 0.0025 molar", "value": 175, "unit": "ms"},
      {"measurement": "T2 (Plasma)", "setting": "[2]; 0.0025 molar", "value": 124, "unit": "ms"},
      {"measurement": "T1 (Plasma)", "setting": "[2]; 0.005 molar", "value": 74, "unit": "ms"},
      {"measurement": "T1 (Water)", "setting": "[2]; 0.005 molar", "value": 100, "unit": "ms"},
      {"measurement": "T2 (Plasma)", "setting": "[2]; 0.005 molar", "value": 68, "unit": "ms"},
      {"measurement": "T2 (Water)", "setting": "[2]; 0.005 molar", "value": 86, "unit": "ms"},
      {"measurement": "T1 (Plasma)", "setting": "[2]; 0.010 molar", "value": 40, "unit": "ms"},
      {"measurement": "T1 (Water)", "setting": "[2]; 0.010 molar", "value": 43, "unit": "ms"},
      {"measurement": "T2 (Plasma)", "setting": "[2]; 0.010 molar", "value": 34, "unit": "ms"},
      {"measurement": "T2 (Water)", "setting": "[2]; 0.010 molar", "value": 41, "unit": "ms"},
      {"measurement": "T1", "setting": "selected body organs [3]; Bile, 0.25 hr", "value": 160, "unit": "ms"},
      {"measurement": "T1", "setting": "selected body organs [3]; Bile, 0.50 hr", "value": 46, "unit": "ms"},
      {"measurement": "T1", "setting": "selected body organs [3]; Bile, 1.0 hr", "value": 25, "unit": "ms"},
      {"measurement": "T1", "setting": "selected body organs [3]; Bile, 2 hr", "value": 21, "unit": "ms"},
      {"measurement": "T1", "setting": "selected body organs [3]; Bile, 4 hr", "value": "< 1", "unit": "ms"},
      {"measurement": "T1", "setting": "selected body organs [3]; Bile, 6 hr", "value": 14, "unit": "ms"},
      {"measurement": "T1", "setting": "selected body organs [3]; Bile, 24 hr", "value": 107, "unit": "ms"},
      {"measurement": "T1", "setting": "selected body organs [3]; Heart, 0.25 hr", "value": 231, "unit": "ms"},
      {"measurement": "T1", "setting": "selected body organs [3]; Heart, 0.50 hr", "value": 352, "unit": "ms"},
      {"measurement": "T1", "setting": "selected body organs [3]; Heart, 1.0 hr", "value": 381, "unit": "ms"},
      {"measurement": "T1", "setting": "selected body organs [3]; Heart, 2 hr", "value": 507, "unit": "ms"},
      {"measurement": "T1", "setting": "selected body organs [3]; Heart, 4 hr", "value": 522, "unit": "ms"},
      {"measurement": "T1", "setting": "selected body organs [3]; Heart, 6 hr", "value": 663, "unit": "ms"},
      {"measurement": "T1", "setting": "selected body organs [3]; Heart, 24 hr", "value": 660, "unit": "ms"},
      {"measurement": "T1", "setting": "selected body organs [3]; Liver, 0.25 hr", "value": 68, "unit": "ms"},
      {"measurement": "T1", "setting": "selected body organs [3]; Liver, 0.50 hr", "value": 76, "unit": "ms"},
      {"measurement": "T1", "setting": "selected body organs [3]; Liver, 1.0 hr", "value": 48, "unit": "ms"},
      {"measurement": "T1", "setting": "selected body organs [3]; Liver, 2 hr", "value": 48, "unit": "ms"},
      {"measurement": "T1", "setting": "selected body organs [3]; Liver, 4 hr", "value": 145, "unit": "ms"},
      {"measurement": "T1", "setting": "selected body organs [3]; Liver, 6 hr", "value": 209, "unit": "ms"},
      {"measurement": "T1", "setting": "selected body organs [3]; Liver, 24 hr", "value": 315, "unit": "ms"},
      {"measurement": "T1", "setting": "selected body organs [3]; Renal cortex, 0.25 hr", "value": 202, "unit": "ms"},
      {"measurement": "T1", "setting": "selected body organs [3]; Renal cortex, 0.50 hr", "value": 191, "unit": "ms"},
      {"measurement": "T1", "setting": "selected body organs [3]; Renal cortex, 1.0 hr", "value": 229, "unit": "ms"},
      {"measurement": "T1", "setting": "selected body organs [3]; Renal cortex, 2 hr", "value": 192, "unit": "ms"},
      {"measurement": "T1", "setting": "selected body organs [3]; Renal cortex, 4 hr", "value": 210, "unit": "ms"},
      {"measurement": "T1", "setting": "selected body organs [3]; Renal cortex, 6 hr", "value": 239, "unit": "ms"},
      {"measurement": "T1", "setting": "selected body organs [3]; Renal cortex, 24 hr", "value": 328, "unit": "ms"},
      {"measurement": "T1", "setting": "selected body organs [3]; Renal medulla, 0.25 hr", "value": 192, "unit": "ms"},
      {"measurement": "T1", "setting": "selected body organs [3]; Renal medulla, 0.50 hr", "value": 231, "unit": "ms"},
      {"measurement": "T1", "setting": "selected body organs [3]; Renal medulla, 1.0 hr", "value": 236, "unit": "ms"},
      {"measurement": "T1", "setting": "selected body organs [3]; Renal medulla, 2 hr", "value": 310, "unit": "ms"},
      {"measurement": "T1", "setting": "selected body organs [3]; Renal medulla, 4 hr", "value": 340, "unit": "ms"},
      {"measurement": "T1", "setting": "selected body organs [3]; Renal medulla, 6 hr", "value": 375, "unit": "ms"},
      {"measurement": "T1", "setting": "selected body organs [3]; Renal medulla, 24 hr", "value": 563, "unit": "ms"},
      {"measurement": "clearance through both the renal and hepatobiliary systems, time post-injection", "setting": "selected body organs [3]; rabbit, i.v.", "value": "6 to 8", "unit": "h"},
      {"measurement": "uptake and clearance in the liver, renal cortex, renal medulla and heart", "setting": "selected body organs [3]; rabbit, i.v.", "value": "rapid uptake and clearance"}
    ]}
  ]
}
